From patent US10787442B2, “Modulators of indoleamine 2,3-dioxygenase” (GLAXOSMITHKLINE INTELLECTUAL PROPERTY DEVELOPMENT LIMITED, priority 2016, dated 2020)
Read-outs that look alike come from different tables or passages of the source.

Legend:
[1] = molecular target: indoleamine 2, 3-dioxygenase (IDO1) (Homo sapiens, UniProt P14902); experiment: IDO1 HeLa RapidFire MS Assay (kynurenine by mass spectrometry); format: cell-based; conditions: HeLa cells stimulated with IFN-γ, 2 days; recorded as pIC50; read-out: IDO1 HeLa PXC50 (converted)
indoleamine 2, 3-dioxygenase (IDO1), sequence (P14902 whole entry): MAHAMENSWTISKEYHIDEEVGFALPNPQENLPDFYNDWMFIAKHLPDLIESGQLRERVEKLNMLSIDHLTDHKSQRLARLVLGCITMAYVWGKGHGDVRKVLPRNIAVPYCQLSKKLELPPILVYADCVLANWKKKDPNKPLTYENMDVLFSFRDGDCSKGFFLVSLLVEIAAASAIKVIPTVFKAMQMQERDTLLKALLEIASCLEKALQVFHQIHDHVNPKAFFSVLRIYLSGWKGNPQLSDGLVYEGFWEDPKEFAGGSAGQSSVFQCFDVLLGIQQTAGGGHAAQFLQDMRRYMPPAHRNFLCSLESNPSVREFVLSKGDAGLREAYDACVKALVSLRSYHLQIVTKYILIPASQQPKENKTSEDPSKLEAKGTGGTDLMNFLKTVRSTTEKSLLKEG
Method: IDO1 HeLa RapidFire MS Assay
Compounds of the present invention were tested via high-throughput cellular assays utilizing detection of kynurenine via mass spectrometry and cytotoxicity as end-points. […] Compounds with IDO1 inhibitory properties decreased the amount of kynurenine produced by the cells via the tryptophan catabolic pathway. Cellular toxicity due to the effect of compound treatment was measured using CellTiter-Glo® reagent (CTG) (Promega Corporation, Madison, Wis.), which is based on luminescent detection of ATP, an indicator of metabolically active cells.
In preparation for the assays, test compounds were serially diluted 3-fold in DMSO from a typical top concentration of 1 mM or 5 mM and plated at 0.5 μL in 384-well, polystyrene, clear bottom, tissue culture treated plates with lids (Greiner Bio-One, Kremsmünster, Austria) to generate 11-point dose response curves. Low control wells (0% kynurenine or 100% cytotoxicity) contained either 0.5 μL of DMSO in the presence of unstimulated (−IFN-γ) HeLa cells for the mass spectrometry assay or 0.5 μL of DMSO in the absence of cells for the cytotoxicity assay, and high control wells (100% kynurenine or 0% cytotoxicity) contained 0.5 μL of DMSO in the presence of stimulated (+IFN-γ) HeLa cells for both the mass spectrometry and cytotoxicity assays.
Frozen stocks of HeLa cells were washed and recovered in DMEM high glucose medium with HEPES (Thermo Fisher Scientific, Inc., Waltham, Mass.) supplemented with 10% v/v certified fetal bovine serum (FBS) (Thermo Fisher Scientific, Inc., Waltham, Mass.), and 1× penicillin-streptomycin antibiotic solution (Thermo Fisher Scientific, Inc., Waltham, Mass.). The cells were diluted to 100,000 cells/mL in the supplemented DMEM medium. 50 μL of either the cell suspension, for the mass spectrometry assay, or medium alone, for the cytotoxicity assay, were added to the low control wells, on the previously prepared 384-well compound plates, resulting in 5,000 cells/well or 0 cells/well respectively. IFN-γ was added to the remaining cell suspension at a final concentration of 10 nM, and 50 μL of the stimulated cells were added to all remaining wells on the 384-well compound plates. The plates, with lids, were then placed in a 37° C., 5% CO2 humidified incubator for 2 days.
Following incubation, the 384-well plates were removed from the incubator and allowed to equilibrate to room temperature for 30 minutes. For the cytotoxicity assay, CellTiter-Glo® was prepared according to the manufacturer's instructions, and 10 μL were added to each plate well. After a twenty minute incubation at room temperature, luminescence was read on an EnVision® Multilabel Reader (PerkinElmer Inc., Waltham, Mass.). For the mass spectrometry assay, 10 μL of supernatant from each well of the compound-treated plates were added to 40 μL of acetonitrile, containing 10 μM of an internal standard for normalization, in 384-well, polypropylene, V-bottom plates (Greiner Bio-One, Kremsmünster, Austria) to extract the organic analytes. Following centrifugation at 2000 rpm for 10 minutes, 10 μL from each well of the acetonitrile extraction plates were added to 90 μL of sterile, distilled H2O in 384-well, polypropylene, V-bottom plates for analysis of kynurenine and the internal standard on the RapidFire 300 (Agilent Technologies, Santa Clara, Calif.) and 4000 QTRAP MS (SCIEX, Framingham, Mass.). MS data were integrated using Agilent Technologies' RapidFire Integrator software, and data were normalized for analysis as a ratio of kynurenine to the internal standard.

[2] = molecular target: T1, ePL tagged IDO1 (Homo sapiens, UniProt P14902); experiment: CETSA (Cellular Thermal Shifting assay); format: binding; conditions: Hela cells, 3 hours at 37° C., heated at 53° C. for 3 min
T1 construct: expressed in transfected cells; host or cells: HeLa cells transduced with BacMam virus
T1 sequence (P14902 whole entry): as above
Method: Cellular Thermal Shifting assays were used to directly monitor the ligand binding to target proteins in cells. Hela cells were transduced with BacMam virus expressing ePL tagged IDO1 overnight. The cells were then plated over the compounds for 3 hours at 37° C. in cell culture medium containing 1% FBS. The plates were then sealed and heated at 53° C. for 3 min. InCell Hunter reagents were added and luminescence was read in 90 min.

Compound: CC(C)CN(c1ncc([C@H](C)CC(=O)O)cc1Nc1ccc(Cl)cn1)C1CCOCC1 [Example 6, (R)-3-(5-((5-chloropyridin-2-yl)amino)-6-(isobutyl(tetrahydro-2H-pyran-4-yl)amino)pyridin-3-yl)butanoic acid]
- IC50 [1]: 7.94 nM
- EC50 ([2]; first value, read-out: pXC50_1 (converted)): 575 nM
- EC50 ([2]; second value, read-out: pXC50_2 (converted)): 759 nM
